The supplement of paper PMC11821682

What was measured:
Danio rerio embryo = assay: BMC10 any morphological effect or mortality at 120 hpf; higher = less toxic
Description: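 ZBEscreen: dechorionated Tropical 5D zebrafish embryos were exposed from 4 hpf in 96-well plates (1% DMSO, 28 °C). All compounds were first tested at 100 µM; hits were retested at 0.005-100 µM. Morphology and mortality were scored at 120 hpf and fitted as BMC10 (3-parameter log-logistic, extra risk). The embryonic photomotor response at 24 hpf and the larval photomotor response at 120 hpf are given as lowest effect levels (K-S test, p<0.01). NA = not significant up to 100 µM; NT = not tested.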

HL-60 = assay: Cell Health Index (toxicity pseudo-probability over dose series) (index 0-1); higher = more cytotoxic / cell stress;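 further: HL-60 cells exposed 4 h at 37 °C to ten threefold dilutions spanning 5 nM to 100 µM, multiparametric flow cytometry features scored by machine-learning classification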

Structure (SMILES) | BMC10 any morphological effect or mortality (Danio rerio embryo) [µM] | Cell Health Index (HL-60)
COC(=O)N[C@H](C(=O)N[C@@H](Cc1ccccc1)[C@@H](O)CN(Cc1ccc(-c2ccccn2)cc1)NC(=O)[C@@H](NC(=O)OC)C(C)(C)C)C(C)(C)C [Atazanavir] | > 100 | 0.374
OCC1=C[C@@H](O)[C@@H]2C=CO[C@@H](O[C@@H]3O[C@H](CO)[C@@H](O)[C@H](O)[C@H]3O)[C@H]12 [Aucubin] | > 100 | 0.304
O=C(O)[C@H]1O[C@@H](Oc2cc3oc(-c4ccccc4)cc(=O)c3c(O)c2O)[C@H](O)[C@@H](O)[C@@H]1O [Baicalin] | > 100 | 0.718
COc1c(O)cc2c(c1O)[C@@H]1O[C@H](CO)[C@@H](O)[C@H](O)[C@H]1OC2=O [Bergenin] | > 100 | 0.214
C=C(C)[C@@H]1CC[C@]2(C=O)CC[C@]3(C)[C@H](CC[C@@H]4[C@@]5(C)CC[C@H](O)C(C)(C)[C@@H]5CC[C@]43C)[C@@H]12 [Betulinic aldehyde] | > 100 | 0.515
O=C(NCc1c(F)cc(F)cc1F)c1cn2c(c(O)c1=O)C(=O)N1[C@H]3CC[C@H](C3)O[C@@H]1C2 [Bictegravir] | > 100 | 0.35
CC[C@H](NC(=O)[C@H](C)NC)C(=O)N1C[C@@H](O)C[C@H]1Cc1c(-c2[nH]c3cc(F)ccc3c2C[C@@H]2C[C@H](O)CN2C(=O)[C@H](CC)NC(=O)[C@H](C)NC)[nH]c2cc(F)ccc12 [Birinapant] | > 100 | 0.282
CC(C)(C)NC(=O)N[C@H](C(=O)N1C[C@H]2[C@@H]([C@H]1C(=O)NC(CC1CCC1)C(=O)C(N)=O)C2(C)C)C(C)(C)C (stereo partly specified) [Boceprevir] | > 100 | 0.228
O=c1[nH]c(=O)n([C@H]2C[C@H](O)[C@@H](CO)O2)cc1/C=C/Br [Brivudine] | > 100 | 0.157
CCCNC(=O)[C@H]1O[C@@H]1C(=O)N[C@H](C(=O)N1CCC[C@H]1C(=O)O)[C@@H](C)CC [CA-074] | > 100 | 0.179
CN(C)C(=O)COC(=O)Cc1ccc(OC(=O)c2ccc(NC(=N)N)cc2)cc1.CS(=O)(=O)O [Camostat] | > 100 | 0.162
CC(C)C[C@H](NC(=O)[C@H](CCc1ccccc1)NC(=O)CN1CCOCC1)C(=O)N[C@@H](Cc1ccccc1)C(=O)N[C@@H](CC(C)C)C(=O)[C@@]1(C)CO1 [Carfilzomib] | > 100 | 0.42
O=C(O)C[C@@H]1C(=O)O[C@H]2[C@@H]3OC(=O)c4cc(O)c(O)c(O)c4-c4c(cc(O)c(O)c4O)C(=O)OC[C@H]2O[C@@H](OC(=O)c2cc(O)c(O)c(O)c2)[C@@H]3OC(=O)c2cc(O)c(O)c3c2[C@H]1[C@H](O)C(=O)O3 [Chebulagic acid] | > 100 | 0.874
O=C(/C=C/c1ccc(O)c(O)c1)O[C@@H](C(=O)O)[C@@H](OC(=O)/C=C/c1ccc(O)c(O)c1)C(=O)O [Chicoric acid] | > 100 | 0.468
O=C(/C=C/c1ccc(O)c(O)c1)O[C@@H]1C[C@](O)(C(=O)O)C[C@@H](O)[C@H]1O [Chlorogenic acid] | > 100 | 0.232
CCN(CC)CCCC(C)Nc1ccnc2cc(Cl)ccc12.O=P(O)(O)O.O=P(O)(O)O (stereo unspecified) [Chloroquine] | > 100 | 0.236
Cc1cc(O)c2c(c1)C(=O)c1cccc(O)c1C2=O [Chrysophanol] | > 100 | 0.288
CC(C)C[C@H](NC(=O)[C@@H](NC(=O)N[C@@H](Cc1ccccc1)C(=O)O)C1CCNC(=N)N1)C(=O)N[C@H](C=O)Cc1ccccc1 (stereo partly specified) [Chymostatin] | > 100 | 0.19
Nc1ccn(C[C@@H](CO)OCP(=O)(O)O)c(=O)n1 [Cidofovir] | > 100 | 0.144
[Cl-].c1c2c(cc3c1OCO3)-c1cc3ccc4c(c3c[n+]1CC2)OCO4 [Coptisine] | > 100 | 0.777
O=C(OC1OC2COC(=O)c3cc(O)c(O)c(O)c3-c3c(cc(O)c(O)c3O)C(=O)OC(C2O)C1O)c1cc(O)c(O)c(O)c1 (stereo unspecified) [Corilagin] | > 100 | 0.889
Nc1ccn([C@@H]2O[C@H](CO)[C@@H](O)[C@@H]2O)c(=O)n1 [Cytarabine] | > 100 | 0.203
CO[C@H]1[C@H](O)[C@@H](O)[C@@H](O)[C@H](O)[C@@H]1O [D-Pinitol] | > 100 | 0.174
CCCCCCOC(=O)NC(=N)c1ccc(NCc2nc3cc(C(=O)N(CCC(=O)OCC)c4ccccn4)ccc3n2C)cc1 [Dabigatran etexilate] | > 100 | 0.832

Structure (SMILES) | BMC10 any morphological effect or mortality (Danio rerio embryo) [µM] | Cell Health Index (HL-60)
Cn1c(CNc2ccc(C(=N)N)cc2)nc2cc(C(=O)N(CCC(=O)O)c3ccccn3)ccc21 [Dabigatran] | > 100 | 0.137
COC(=O)N[C@H](C(=O)N1CCC[C@H]1c1ncc(-c2ccc(-c3ccc(-c4cnc([C@@H]5CCCN5C(=O)[C@@H](NC(=O)OC)C(C)C)[nH]4)cc3)cc2)[nH]1)C(C)C [Daclatasvir] | > 100 | 0.208
O=c1c(-c2ccc(O)cc2)coc2cc(O[C@@H]3O[C@H](CO)[C@@H](O)[C@H](O)[C@H]3O)ccc12 [Daidzin] | > 100 | 0.169
CC(C)(C)OC(=O)N[C@H]1CCCCC/C=C\[C@@H]2C[C@@]2(C(=O)NS(=O)(=O)C2CC2)NC(=O)[C@@H]2C[C@@H](OC(=O)N3Cc4cccc(F)c4C3)CN2C1=O [Danoprevir] | > 100 | 0.26
COc1cc2cc(Oc3ccc4ccc(=O)oc4c3)c(=O)oc2cc1O [Daphnoretin] | > 100 | 0.178
Cc1cc(C)c(Nc2ccnc(Nc3ccc(C#N)cc3)n2)c(C)c1 [Dapivirine] | > 100 | 0.836
COc1c(-c2ccc3cc(NS(C)(=O)=O)ccc3c2)cc(-n2ccc(=O)[nH]c2=O)cc1C(C)(C)C [Dasabuvir] | > 100 | 0.608
Cc1c(O)c(=O)ccn1C [Deferiprone] | > 100 | 0.256
CC(=O)N(O)CCCCCNC(=O)CCC(=O)N(O)CCCCCNC(=O)CCC(=O)N(O)CCCCCN.CS(=O)(=O)O [Deferoxamine] | > 100 | 0.23
CC(C)Nc1cccnc1N1CCN(C(=O)c2cc3cc(NS(C)(=O)=O)ccc3[nH]2)CC1.CS(=O)(=O)O [Delavirdine] | > 100 | 0.324
COC(=O)N[C@H](C(=O)NNC[C@H](O)[C@H](Cc1ccccc1)NC(=O)[C@@H](NC(=O)OC)C(C)(C)C)C(C)(C)C [Des(benzylpyridyl) Atazanavir] | > 100 | 0.207
O=c1[nH]cnc2c1ncn2[C@H]1CC[C@@H](CO)O1 [Didanosine] | > 100 | 0.159
CCCCCCCCCCCCCCCCCCCCCCO [Docosanol] | > 100 | 0.266
Cn1c(Cn2ccc(C(F)(F)F)c(Oc3cc(Cl)cc(C#N)c3)c2=O)n[nH]c1=O [Doravirine] | > 100 | 0.198
CCO.C[C@H]1c2cccc(O)c2C(=O)C2=C(O)[C@]3(O)C(=O)C(C(N)=O)=C(O)[C@@H](N(C)C)C3[C@@H](O)C21.C[C@H]1c2cccc(O)c2C(=O)C2=C(O)[C@]3(O)C(=O)C(C(N)=O)=C(O)[C@@H](N(C)C)C3[C@@H](O)C21.Cl.Cl.O (stereo partly specified) [Doxycycline] | > 100 | 0.591
Cl.OC[C@H]1NC[C@H](O)[C@@H](O)[C@@H]1O [Duvoglustat] | > 100 | 0.147
COc1cc2c(cc1OC)CN(CCc1ccc(NC(=O)c3cccc4c(=O)c5cccc(OC)c5[nH]c34)cc1)CC2 [Elacridar] | > 100 | 0.592
COc1cc2c(cc1Cc1cccc(Cl)c1F)c(=O)c(C(=O)O)cn2[C@H](CO)C(C)C [Elvitegravir] | > 100 | 0.339
Nc1nc(=O)n([C@@H]2CS(=O)[C@H](CO)O2)cc1F (stereo partly specified) [Emtricitabine S-oxide] | > 100 | 0.188
Nc1nc(=O)n([C@@H]2CS[C@H](CO)O2)cc1F [Emtricitabine] | > 100 | 0.158
C=C1[C@H](CO)[C@@H](O)C[C@@H]1n1cnc2c(=O)nc(N)[nH]c21.O [Entecavir] | > 100 | 0.178
CC(O)(P(=O)([O-])O)P(=O)([O-])O.[Na+].[Na+] [Etidronic acid] | > 100 | 0.198
CC(=O)OCC(CCn1cnc2cnc(N)nc21)COC(C)=O [Famciclovir] | > 100 | 0.254
NC(=O)c1nc(F)c[nH]c1=O [Favipiravir] | > 100 | 0.248
